In patent publication US9804168B2, “Biomarker discovery in complex biological fluid using bead or particle based libraries and diagnostic kits and therapeutics” (OPKO Pharmaceuticals, LLC, priority 2011, dated 2017):

System: anti-DNP antibody
Assay: FACS bead model: DNP beads versus acetyl beads with anti-DNP antibody in sera
Type: binding
Conditions: FIG. 40; 1,000 ug/mL sera concentration
Method: The Mean fluorescence intensity (MFI) separation was greatest at the higher dilution of 1,000 ug/mL sera.

- competition with binding of DNP (on a plate) to anti-DNP antibody: direct competition
SMILES: O=[N+]([O-])c1ccc(NCCO)c([N+](=O)[O-])c1 [ethanolamine-DNP]
